How the values were obtained:
SMARCA2-HiBiT = target: T1, SMARCA2-HiBiT (Homo sapiens, UniProt P51531); assay: SMARCA2 HiBiT degradation assay in HeLa cells; format: cell-based; settings: 18 hours incubation; for DC50: read-out: HeLa_HiBit-SM2 DC50; for Dmax: HeLa, read-out: HeLa-HiBit-SM2 Dmax (%)
T1 construct: SMARCA2-HiBiT knock-in Hela monoclonal cell (CS302366); host or cells: HeLa monoclonal knock-in line (CRISPR HiBiT knock-in at the endogenous locus, heterozygous)
In short: (§1)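 HeLa monoclonal lines with heterozygous HiBiT knock-in were seeded at 2500 cells/well in EMEM with 10% FBS and treated with compound for 18 h at 37 °C. Remaining tagged protein was measured by Nano-Glo HiBiT lytic luminescence after 30–60 min at RT, and values came from curve fitting.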

SMARCA4-HiBiT = target: T2, SMARCA4-HiBiT (Homo sapiens, UniProt P51532); assay: SMARCA4 HiBiT degradation assay in HeLa cells; format: cell-based; settings: 18 hours incubation; for DC50: read-out: HeLa-HiBit-SM4 DC50; for Dmax: HeLa, read-out: HeLa-HiBit-SM4 Dmax (%)
T2 construct: SMARCA4-HiBiT knock-in Hela monoclonal cell (CS3023226); host or cells: HeLa monoclonal knock-in line (CRISPR HiBiT knock-in at the endogenous locus, heterozygous)
In short: as §1

T2 sequence (P51532 whole entry): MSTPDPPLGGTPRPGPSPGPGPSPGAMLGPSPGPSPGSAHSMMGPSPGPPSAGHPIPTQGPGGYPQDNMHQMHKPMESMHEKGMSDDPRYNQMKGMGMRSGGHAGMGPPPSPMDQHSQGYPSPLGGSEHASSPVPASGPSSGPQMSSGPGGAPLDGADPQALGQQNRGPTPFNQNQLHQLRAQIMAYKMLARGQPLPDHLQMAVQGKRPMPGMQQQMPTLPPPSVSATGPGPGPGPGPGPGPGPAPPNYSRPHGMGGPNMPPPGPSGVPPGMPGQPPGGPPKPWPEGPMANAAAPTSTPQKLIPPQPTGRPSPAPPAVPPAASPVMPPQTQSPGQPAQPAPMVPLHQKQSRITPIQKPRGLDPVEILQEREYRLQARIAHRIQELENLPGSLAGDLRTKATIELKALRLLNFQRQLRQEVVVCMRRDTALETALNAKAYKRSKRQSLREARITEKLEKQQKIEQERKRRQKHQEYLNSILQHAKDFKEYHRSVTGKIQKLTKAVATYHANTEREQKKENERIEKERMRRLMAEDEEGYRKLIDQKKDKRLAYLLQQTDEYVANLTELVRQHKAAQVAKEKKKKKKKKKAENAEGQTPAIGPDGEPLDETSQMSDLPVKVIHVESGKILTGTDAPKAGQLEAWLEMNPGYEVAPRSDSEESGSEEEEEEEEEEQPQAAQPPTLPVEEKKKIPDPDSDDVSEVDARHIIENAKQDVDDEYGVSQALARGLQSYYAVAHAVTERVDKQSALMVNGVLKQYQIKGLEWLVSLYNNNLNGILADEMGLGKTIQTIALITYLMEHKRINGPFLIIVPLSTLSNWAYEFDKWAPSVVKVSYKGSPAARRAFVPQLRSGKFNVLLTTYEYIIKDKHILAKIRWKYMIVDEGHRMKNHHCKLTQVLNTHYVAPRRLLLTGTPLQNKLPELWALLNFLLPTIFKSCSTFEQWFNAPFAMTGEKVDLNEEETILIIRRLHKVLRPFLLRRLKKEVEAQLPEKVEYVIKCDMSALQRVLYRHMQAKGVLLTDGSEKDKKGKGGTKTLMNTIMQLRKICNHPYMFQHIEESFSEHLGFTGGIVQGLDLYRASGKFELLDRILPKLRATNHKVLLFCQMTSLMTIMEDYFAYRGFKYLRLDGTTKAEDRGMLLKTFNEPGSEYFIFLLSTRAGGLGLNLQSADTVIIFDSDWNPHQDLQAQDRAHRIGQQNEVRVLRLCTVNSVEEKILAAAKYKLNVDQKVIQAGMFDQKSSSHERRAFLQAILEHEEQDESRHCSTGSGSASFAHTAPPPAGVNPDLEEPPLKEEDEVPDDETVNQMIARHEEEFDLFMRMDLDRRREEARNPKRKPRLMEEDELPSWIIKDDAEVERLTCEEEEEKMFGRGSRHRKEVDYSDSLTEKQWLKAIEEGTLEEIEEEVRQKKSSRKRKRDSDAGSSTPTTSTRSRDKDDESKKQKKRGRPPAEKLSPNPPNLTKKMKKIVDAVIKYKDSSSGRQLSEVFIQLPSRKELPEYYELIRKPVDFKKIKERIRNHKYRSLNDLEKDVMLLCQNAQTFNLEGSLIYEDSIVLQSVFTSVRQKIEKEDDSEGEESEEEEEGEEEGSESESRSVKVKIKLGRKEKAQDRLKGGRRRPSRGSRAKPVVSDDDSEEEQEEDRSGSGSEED
T1 sequence (P51531 whole entry): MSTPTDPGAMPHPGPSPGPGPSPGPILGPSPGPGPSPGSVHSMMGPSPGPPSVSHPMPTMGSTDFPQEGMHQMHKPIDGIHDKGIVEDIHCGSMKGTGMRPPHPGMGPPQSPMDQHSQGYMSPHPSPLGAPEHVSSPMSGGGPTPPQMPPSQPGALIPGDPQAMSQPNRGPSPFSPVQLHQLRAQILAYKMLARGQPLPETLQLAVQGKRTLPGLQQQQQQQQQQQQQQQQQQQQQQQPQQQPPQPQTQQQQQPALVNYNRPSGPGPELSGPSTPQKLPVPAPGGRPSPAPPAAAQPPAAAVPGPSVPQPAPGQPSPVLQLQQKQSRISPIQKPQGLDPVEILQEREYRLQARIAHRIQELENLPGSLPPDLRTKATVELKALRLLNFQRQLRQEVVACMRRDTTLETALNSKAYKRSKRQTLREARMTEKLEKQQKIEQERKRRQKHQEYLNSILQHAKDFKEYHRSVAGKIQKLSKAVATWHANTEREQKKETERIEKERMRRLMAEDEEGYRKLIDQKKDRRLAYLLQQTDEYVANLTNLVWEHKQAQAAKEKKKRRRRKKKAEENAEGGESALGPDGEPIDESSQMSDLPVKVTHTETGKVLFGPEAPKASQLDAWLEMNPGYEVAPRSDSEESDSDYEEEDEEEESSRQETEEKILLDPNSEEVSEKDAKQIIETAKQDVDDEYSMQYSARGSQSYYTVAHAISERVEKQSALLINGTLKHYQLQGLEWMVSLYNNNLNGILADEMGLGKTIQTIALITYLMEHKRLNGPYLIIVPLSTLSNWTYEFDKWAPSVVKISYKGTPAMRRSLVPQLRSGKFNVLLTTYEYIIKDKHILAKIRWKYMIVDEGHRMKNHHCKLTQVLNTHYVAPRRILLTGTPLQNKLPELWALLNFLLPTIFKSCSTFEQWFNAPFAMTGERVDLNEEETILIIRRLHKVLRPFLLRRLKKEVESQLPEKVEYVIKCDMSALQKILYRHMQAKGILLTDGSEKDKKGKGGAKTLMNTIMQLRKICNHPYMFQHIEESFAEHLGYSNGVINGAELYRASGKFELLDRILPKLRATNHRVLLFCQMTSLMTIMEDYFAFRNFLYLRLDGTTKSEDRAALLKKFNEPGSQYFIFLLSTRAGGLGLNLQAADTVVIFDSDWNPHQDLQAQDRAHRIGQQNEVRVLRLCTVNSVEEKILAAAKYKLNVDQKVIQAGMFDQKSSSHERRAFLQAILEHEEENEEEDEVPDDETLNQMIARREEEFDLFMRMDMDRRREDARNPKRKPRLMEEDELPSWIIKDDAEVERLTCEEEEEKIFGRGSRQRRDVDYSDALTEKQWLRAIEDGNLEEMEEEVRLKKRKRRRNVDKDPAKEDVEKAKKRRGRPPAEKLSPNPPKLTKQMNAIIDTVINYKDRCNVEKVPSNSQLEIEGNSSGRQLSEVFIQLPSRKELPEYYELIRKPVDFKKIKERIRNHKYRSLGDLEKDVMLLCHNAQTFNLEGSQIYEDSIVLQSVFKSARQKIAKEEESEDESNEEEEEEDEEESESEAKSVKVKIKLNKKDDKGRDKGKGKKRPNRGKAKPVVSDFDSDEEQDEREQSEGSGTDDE

| Compound | DC50 (SMARCA2-HiBiT) | Dmax (SMARCA2-HiBiT) | DC50 (SMARCA4-HiBiT) | Dmax (SMARCA4-HiBiT) |
| --- | --- | --- | --- | --- |
| C[C@H]1CN2c3cc(-c4ccccc4O)nnc3NC[C@H]2CN1C[C@H]1[C@@H]2CN(CC3CCN(c4ccc5c(c4)CN(C4CCC(=O)NC4=O)C5=O)CC3)C[C@@H]21 (stereo partly drawn) [Example 57, 3-(5-(4-(((1R,5S,6r)-6-(((6aS,9S)-2-(2-hydroxyphenyl)-9-methyl-5,6,6a,7,9,10-hexahydro-8H-pyrazino[1′,2′:4,5]pyrazino[2,3-c]pyridazin-8-yl)methyl)-3-azabicyclo[3.1.0]hexan-3-yl)methyl)piperidin-1-yl)-1-oxoisoindolin-2-yl)piperidine-2,6-dione] | < 0.01 µM | 50 to 75% | < 0.01 µM | ≤ 50% |
| C[C@H]1CN(CC2CCN(c3ccc4c(c3)C(=O)N(C3CCC(=O)NC3=O)C4)CC2)CCN1C(=O)N1CCN2c3cc(-c4ccccc4O)nnc3NC[C@H]2C1 (stereo partly drawn) [Example 112, 3-(6-(4-(((S)-4-((S)-2-(2-hydroxyphenyl)-6,6a,7,8,9,10-hexahydro-5H-pyrazino[1′,2′:4,5]pyrazino[2,3-c]pyridazine-8-carbonyl)-3-methylpiperazin-1-yl)methyl)piperidin-1-yl)-1-oxoisoindolin-2-yl)piperidine-2,6-dione] | < 0.01 µM | > 85% | < 0.01 µM | 75 to 85% |
| O=C1CCC(N2C(=O)c3cccc(N4CCC(CCCN5CCC6(CCC(N7CCN8c9cc(-c%10ccccc%10O)nnc9NC[C@H]8C7)CC6)CC5)CC4)c3C2=O)C(=O)N1 (stereo partly drawn) [Example 72, 2-(2,6-dioxopiperidin-3-yl)-4-(4-(3-(9-((S)-2-(2-hydroxyphenyl)-5,6,6a,7,9,10-hexahydro-8H-pyrazino[1′,2′:4,5]pyrazino[2,3-c]pyridazin-8-yl)-3-azaspiro[5.5]undecan-3-yl)propyl)piperidin-1-yl)isoindoline-1,3-dione] | < 0.01 µM | 75 to 85% | < 0.01 µM | 50 to 75% |
| CC1CN(CC2CCN(c3ccc4c(c3)C(=O)N(C3CCC(=O)NC3=O)C4)CC2)CC(C)N1C(=O)N1CCN2c3cc(-c4ccccc4O)nnc3NC[C@H]2C1 (stereo partly drawn) [Example 266, 3-(6-(4-((4-((S)-2-(2-hydroxyphenyl)-6,6a,7,8,9,10-hexahydro-5H-pyrazino[1′,2′:4,5]pyrazino[2,3-c]pyridazine-8-carbonyl)-3,5-dimethylpiperazin-1-yl)methyl)piperidin-1-yl)-1-oxoisoindolin-2-yl)piperidine-2,6-dione] | < 0.01 µM | > 85% | < 0.01 µM | > 85% |
| O=C1CCC(N2Cc3ccc(N4CC(CN5CCN(C(=O)N6CCN7c8cc(-c9ccccc9O)nnc8NC[C@H]7C6)CC5)C4)cc3C2=O)C(=O)N1 (stereo partly drawn) [Example 107, 3-(6-(3-((4-((S)-2-(2-hydroxyphenyl)-6,6a,7,8,9,10-hexahydro-5H-pyrazino[1′,2′:4,5]pyrazino[2,3-c]pyridazine-8-carbonyl)piperazin-1-yl)methyl)azetidin-1-yl)-1-oxoisoindolin-2-yl)piperidine-2,6-dione] | < 0.01 µM | > 85% | 0.01 to 0.1 µM | 75 to 85% |
| CN(CCN1CCC(N2CCN3c4cc(-c5ccccc5O)nnc4NC[C@H]3C2)CC1)c1cccc2c1C(=O)N(C1CCC(=O)NC1=O)C2=O (stereo partly drawn) [Example 68, 2-(2,6-dioxopiperidin-3-yl)-4-((2-(4-((S)-2-(2-hydroxyphenyl)-5,6,6a,7,9,10-hexahydro-8H-pyrazino[1′,2′:4,5]pyrazino[2,3-c]pyridazin-8-yl)piperidin-1-yl)ethyl)(methyl)amino)isoindoline-1,3-dione] | < 0.01 µM | > 85% | 0.01 to 0.1 µM | > 85% |
| O=C1CCC(N2Cc3cc(OCCN4CCC(N5CCN6c7cc(-c8ccccc8O)nnc7NC[C@H]6C5)CC4)ccc3C2=O)C(=O)N1 (stereo partly shown) [Example 238] | < 0.01 µM | > 85% | < 0.01 µM | 75 to 85% |
| O=C1CCC(N2Cc3ccc(N4CCC(CN5CCN(C(=O)N6CCN7c8cc(-c9ccccc9O)nnc8NC[C@H]7C6)C6(CC6)C5)CC4)cc3C2=O)C(=O)N1 (stereo partly drawn) [Example 262, 3-(6-(4-((4-((S)-2-(2-hydroxyphenyl)-6,6a,7,8,9,10-hexahydro-5H-pyrazino[1′,2′:4,5]pyrazino[2,3-c]pyridazine-8-carbonyl)-4,7-diazaspiro[2.5]octan-7-yl)methyl)piperidin-1-yl)-1-oxoisoindolin-2-yl)piperidine-2,6-dione] | < 0.01 µM | > 85% | < 0.01 µM | > 85% |

Continued, values first:

| DC50 (SMARCA2-HiBiT) | Dmax (SMARCA2-HiBiT) | DC50 (SMARCA4-HiBiT) | Dmax (SMARCA4-HiBiT) | Compound |
| --- | --- | --- | --- | --- |
| < 0.01 µM | > 85% | < 0.01 µM | > 85% | O=C1CCC(N2C(=O)c3ccc(N4CCC(CN5CCC(NC(=O)N6CCN7c8cc(-c9ccccc9O)nnc8NC[C@H]7C6)CC5)CC4)cc3C2=O)C(=O)N1 (stereo partly drawn) [Example 80, (6aS)-N-(1-((1-(2-(2,6-dioxopiperidin-3-yl)-1,3-dioxoisoindolin-5-yl)piperidin-4-yl)methyl)piperidin-4-yl)-2-(2-hydroxyphenyl)-5,6,6a,7,9,10-hexahydro-8H-pyrazino[1′,2′:4,5]pyrazino[2,3-c]pyridazine-8-carboxamide] |
| < 0.01 µM | 75 to 85% | < 0.01 µM | 50 to 75% | O=C1CCC(N2C(=O)c3ccc(N4CCC(CNC56CC(CN7CCN8c9cc(-c%10ccccc%10O)nnc9NC[C@H]8C7)(C5)C6)CC4)cc3C2=O)C(=O)N1 (stereo partly drawn) [Example 134, 2-(2,6-dioxopiperidin-3-yl)-5-(4-(((3-(((S)-2-(2-hydroxyphenyl)-5,6,6a,7,9,10-hexahydro-8H-pyrazino[1′,2′:4,5]pyrazino[2,3-c]pyridazin-8-yl)methyl)bicyclo[1.1.1]pentan-1-yl)amino)methyl)piperidin-1-yl)isoindoline-1,3-dione] |
| < 0.01 µM | > 85% | < 0.01 µM | > 85% | O=C1CCC(N2C(=O)c3ccc(N4CCN(CCN5CCC(N6CCN7c8cc(-c9ccccc9O)nnc8NC[C@H]7C6)CC5)CC4)cc3C2=O)C(=O)N1 (stereo partly drawn) [Example 155, 2-(2,6-dioxopiperidin-3-yl)-5-(4-(2-(4-((S)-2-(2-hydroxyphenyl)-5,6,6a,7,9,10-hexahydro-8H-pyrazino[1′,2′:4,5]pyrazino[2,3-c]pyridazin-8-yl)piperidin-1-yl)ethyl)piperazin-1-yl)isoindoline-1,3-dione] |
| < 0.01 µM | 75 to 85% | 0.01 to 0.1 µM | 50 to 75% | O=C1CCC(N2C(=O)c3ccc(N4CCN(CC5CCN(C(=O)N6CCN7c8cc(-c9ccccc9O)nnc8NC[C@H]7C6)CC5)CC4)cc3C2=O)C(=O)N1 (stereo partly drawn) [Example 142, 2-(2,6-dioxopiperidin-3-yl)-5-(4-((1-((S)-2-(2-hydroxyphenyl)-6,6a,7,8,9,10-hexahydro-5H-pyrazino[1′,2′:4,5]pyrazino[2,3-c]pyridazine-8-carbonyl)piperidin-4-yl)methyl)piperazin-1-yl)isoindoline-1,3-dione] |
| 0.01 to 0.1 µM | 75 to 85% | 0.01 to 0.1 µM | 50 to 75% | O=C1CCC(N2C(=O)c3ccc(N4CCC(N5CCN6c7cc(-c8ccccc8O)nnc7NC[C@H]6C5)C4)cc3C2=O)C(=O)N1 (stereo partly drawn) [Example 156, 2-(2,6-dioxopiperidin-3-yl)-5-(3-((S)-2-(2-hydroxyphenyl)-5,6,6a,7,9,10-hexahydro-8H-pyrazino[1′,2′:4,5]pyrazino[2,3-c]pyridazin-8-yl)pyrrolidin-1-yl)isoindoline-1,3-dione] |
| < 0.01 µM | > 85% | < 0.01 µM | > 85% | O=C1CCC(N2C(=O)c3ccc(C4CCN(C5CCN(CCN6CCN7c8cc(-c9ccccc9O)nnc8NC[C@H]7C6)C5)CC4)cc3C2=O)C(=O)N1 (stereo partly drawn) [Example 243, 2-(2,6-dioxopiperidin-3-yl)-5-(1-(1-(2-((S)-2-(2-hydroxyphenyl)-5,6,6a,7,9,10-hexahydro-8H-pyrazino[1′,2′:4,5]pyrazino[2,3-c]pyridazin-8-yl)ethyl)pyrrolidin-3-yl)piperidin-4-yl)isoindoline-1,3-dione] |
| < 0.01 µM | > 85% | < 0.01 µM | > 85% | O=C1CCC(N2C(=O)c3ccc(N4CC5(CC(CN6CCC(CN7CCN8c9cc(-c%10ccccc%10O)nnc9NC[C@H]8C7)CC6)C5)C4)cc3C2=O)C(=O)N1 (stereo partly drawn) [Example 147, 2-(2,6-dioxopiperidin-3-yl)-5-(6-((4-(((S)-2-(2-hydroxyphenyl)-5,6,6a,7,9,10-hexahydro-8H-pyrazino[1′,2′:4,5]pyrazino[2,3-c]pyridazin-8-yl)methyl)piperidin-1-yl)methyl)-2-azaspiro[3.3]heptan-2-yl)isoindoline-1,3-dione] |
| < 0.01 µM | 75 to 85% | 0.01 to 0.1 µM | 75 to 85% | O=C1CCC(N2C(=O)c3ccc(OC4CCN(CC5CCN(C(=O)N6CCN7c8cc(-c9ccccc9O)nnc8NC[C@H]7C6)CC5)CC4)cc3C2=O)C(=O)N1 (stereo partly drawn) [Example 145, 2-(2,6-dioxopiperidin-3-yl)-5-((1-((1-((S)-2-(2-hydroxyphenyl)-6,6a,7,8,9,10-hexahydro-5H-pyrazino[1′,2′:4,5]pyrazino[2,3-c]pyridazine-8-carbonyl)piperidin-4-yl)methyl)piperidin-4-yl)oxy)isoindoline-1,3-dione] |

From patent publication US12448389B2, “BRM targeting compounds and associated methods of use” (Prelude Therapeutics Incorporated, priority 2020, dated 2025)
